Source: patent EP0101641A2, “Sulfonylamino-aza-bicyclo-alkyl derivatives” (BEECHAM GROUP PLC, priority 1982, dated 1984)

How the values were obtained:
Assay type in all cases: in vivo
intragastric pressure = experiment: Increase in intragastric pressure (peripheral dopamine blockade) in conscious restrained rats; parameters: key: A = active; IA = inactive; conditions: rat
Description: Increase in intragastric pressure - peripheral dopamine blockade
Intragastric pressure changes were recorded from previously starved conscious but restrained rats using a saline filled catheter inserted into the lumen of the stomach via a permanent gastric fistula. The catheter was connected to a physiological pressure transducer and pressure changes recorded on a hot wire pen recorder. In each animal a pre-dose period of 40 minutes was allowed to obtain a measure of spontaneous activity. An index of activity was obtained by measuring the average height of pressure waves during 10 minute periods. Values for 4 such periods were obtained during assessment of spontaneous activity and for 40 minute period after administration of compound. Student's "T" test was applied to the difference in average values obtained for spontaneous and post compound activity.

vomiting response = experiment: Anti-emetic activity in the dog (apomorphine-induced vomiting); parameters: key to Anti-emetic: A = active; IA = inactive; conditions: for Anti-emetic: at 0.1 mg/kg s.c., 30 minutes before apomorphine HC1 0.1 mg/kg s.c.; for ED50: Canis lupus familiaris, sc, s.c. 30 minutes before apomorphine HC1 0.1 mg/kg s.c.
Description: Anti-emetic activity in the dog
Compounds were administered subcutaneously 30 minutes prior to administration of a standard dose of apomorphine HC1 (0.1 mg/kg subcutaneously) and the vomiting response compared to that obtained when the same animals were dosed with apomorphine HC1 and vehicle only.

Dopamine Receptor = experiment: Inhibition of apomorphine induced climbing in the mouse (central dopamine receptor blocking activity); parameters: key to CNS (Climbing): A = active; IA = inactive; conditions: apomorphine 1mg/kg s.c.

Compound	IG Pressure (Basal) (intragastric pressure; at 1.0 mg/kg s.c.)	Anti-emetic (vomiting response)	CNS (Climbing) ED50 (Dopamine Receptor)	ED50 (vomiting response) [mg/kg]	CNS (Climbing) (Dopamine Receptor; at 10 mg/kg s.c.)	IG Pressure (Basal) (intragastric pressure; at 5.0 mg/kg s.c.)	CNS (Climbing) (Dopamine Receptor; at 50 mg/kg s.c.)
5-hlethanesu-lphonylamido-2-rnethoxy-3-methyl-N-[3a-[8-benzyl-8-azabicyclo(3.2.1)octyl}]benzamide [Compound 10]	A at 1.0	A at 0.1					
COc1cc(NS(C)(=O)=O)c(Cl)cc1C(=O)N[C@@H]1C[C@H]2CC[C@@H](C1)N2Cc1ccccc1 [Compound 1, 4-MethanGsulphonamJdo-5-ch3oro-2-methoxy-N-[3P-(8-benzyl-8-azabicyclo{3.2.1)octyl)]benzainide]	A at 1.0		ED50 0.2 mg/kg s.c.	0.02			
COc1cc(NS(C)(=O)=O)ccc1C(=O)N[C@@H]1C[C@H]2CC[C@@H](C1)N2Cc1ccccc1 [Compound 2, 4-methanesulphonamido-2-methoxy-N-[3β-(8-benzyl-8-azabicyclo(3.2.1)octyl)]benzamide]	IA at 1.0			0.1	A at 10		
COc1cc(NS(C)(=O)=O)c(S(C)(=O)=O)cc1C(=O)N[C@@H]1C[C@H]2CC[C@@H](C1)N2Cc1ccccc1 [Compound 6, 4-Methanesulphonamido-2-methoxy-5-methylsulphonyl-N-[3β-{8-benzy1-8-azabicyclo(3.2.1)octyl)]benzamide]		A at 0.1				IA at 5.0	IA at 50
